According to patent publication US9889180B2, “Method of treating cancer” (Agency for Science, Technology and Research, priority 2012, dated 2018):

Tests used:
IFNGR1 promoter = test: ChIP analysis of EZH2 and H3K27me3 enrichments at IFNGR1 in DU145 cells; assay type: cell-based, human; settings: GSK126 (5 μM), 3 days, compared with DZNep
Protocol: ChIP assays were performed as described previously. […] The immunoprecipitated DNA was quantified by quantitative real-time PCR using KAPA SyBr Fast qPCR kit (KAPA biosystems) with the specific ChIP primers as listed in the Table 4. Quantification of binding to the promoter was defined as the percentage of the whole cell lysate input DNA. The fold enrichment was derived by normalizing the specific antibody enriched against the IgG-enriched chromatin. CNR1 serves a positive control and Actin is a negative control. Significance of target genes was assessed relative to Actin level.

[1] = tested on: IFNGR1 expression and IFN-γ-STAT1 signaling; test: qRT-PCR and western blot of IFNGR1 expression and IFN-γ signaling in DU145 cells; assay type: cell-based, human
Protocol: All cells were maintained at 37° C. with 5% CO2. Cells were grown until they were 80% confluent before they are treated the respective drugs. For drug treatment, DZNep and GSK126 were purchased from Pharmaron Inc. (Beijing, China), GSK343 was kindly provided by Chemical Probes of University of Toronto, 5′Aza, TSA and human recombinant IFN-γ was purchased from Sigma. For rescue experiment using IFNGR1 blocking antibody, the neutralizing antibody that specifically targets IFNGR1 (anti-CD119, GIR-208, BD Pharmingen) was added to the medium 4 hour prior to the addition of DZNep or/and IFN-γ. Total RNA was isolated by using Trizol (Invitrogen) and purified with the RNeasy Mini Kit (Qiagen). The microarray hybridization was performed using the Illumina Gene Expression Sentrix BeadChip HumanRef-8_V3, and data analysis was performed by GeneSpring software from Agilent Technologies as described previously. The analyzed gene sets by GeneSpring were next subjected to Ingenuity Pathway Analysis (IPA) for gene ontology (GO) analysis. Reverse transcription and quantitative PCR assays were performed using High Capacity cDNA Archive kit and KAPA SyBr Fast qPCR kit (KAPA biosystems). For quantification of mRNA levels, 18S level was used as an internal control. All reactions were analyzed in an Applied Biosystems PRISM 7500 Fast Real-Time PCR system in 96-well plate format. Western Blotting was performed as described previously. Briefly, Cells were scraped, collected, and lysed in RIPA buffer. To release histones from chromatin, cell lysates were further sonicated for 15 sec using a XL2000 Microson Ultrasonic Processor (Misonix). Equal amounts of protein (30 μg) were separated on SDS-polyacrylamide gels and transferred to PVDF membranes. The blots were probed with antibodies against EED (07-368), SUZ12 (07-379), trimethylated H3-K27 (07-449), Acetyl-Histone H3 (06-599), which were purchased from Upstate Biotechnology. IFNGR1 (GIR-94) and anti-IFI16 (1G7) were purchased from Santa Cruz. EZH2 phospho S21 (00388) was purchased from Bethyl Laboratories. EZH2 (AC22), P110α PI3K, p-AKT (T308), p-AKT (S473), pSTAT1Y701, total STAT1, Histone H3 (3H1), Beclin-1 and cleaved PARP were purchased from Cell Signaling. Myc and Actin were purchased from Roche Applied Science and Sigma-Aldrich, respectively.

solid tumor cells = settings: very recent report; cited from earlier work
DU145 cells [2] = test: FACS sub-G1 DNA analysis (apoptosis) in DU145 cells; assay type: cell-based, human; settings: for apoptotic effect (sub-G1) / apoptosis (sub-G1) with other epigenetic compounds: in combination with IFN-γ; for apoptotic effect (sub-G1): treated for either 3 days or 10 days; for apoptosis (sub-G1) with other epigenetic compounds: compared with DZNep
Protocol: For the assessment of cell death, cells were harvested in 70% ethanol. Fixed cells were stained with Propidium Iodide (P.I) (50 μg/mL). The stained cells were analyzed for DNA content by FACS in a FACSCalibur (Becton Dickinson Instrument). % of cell death was defined as the sub-G1 population quantified using the CellQuest software (Becton Dickinson). The percentage of dead cells or sub-G1 cells was calculated by comparing the results of each experiment to the results from DMSO-treated cells. Each assay was repeated a minimum of three times, with results reported as means+s.e.m.

EZH2/PRC2 and H3K27me3 = molecular target: T1, EZH2/PRC2 and H3K27me3 (Homo sapiens, UniProt Q15910); test: Western blot of PRC2 proteins and H3K27me3 in DU145 cells; assay type: cell-based
T1 construct: endogenous in cells; host or cells: DU145 (named by the earlier reading of the assay)
T1 sequence (Q15910 whole entry): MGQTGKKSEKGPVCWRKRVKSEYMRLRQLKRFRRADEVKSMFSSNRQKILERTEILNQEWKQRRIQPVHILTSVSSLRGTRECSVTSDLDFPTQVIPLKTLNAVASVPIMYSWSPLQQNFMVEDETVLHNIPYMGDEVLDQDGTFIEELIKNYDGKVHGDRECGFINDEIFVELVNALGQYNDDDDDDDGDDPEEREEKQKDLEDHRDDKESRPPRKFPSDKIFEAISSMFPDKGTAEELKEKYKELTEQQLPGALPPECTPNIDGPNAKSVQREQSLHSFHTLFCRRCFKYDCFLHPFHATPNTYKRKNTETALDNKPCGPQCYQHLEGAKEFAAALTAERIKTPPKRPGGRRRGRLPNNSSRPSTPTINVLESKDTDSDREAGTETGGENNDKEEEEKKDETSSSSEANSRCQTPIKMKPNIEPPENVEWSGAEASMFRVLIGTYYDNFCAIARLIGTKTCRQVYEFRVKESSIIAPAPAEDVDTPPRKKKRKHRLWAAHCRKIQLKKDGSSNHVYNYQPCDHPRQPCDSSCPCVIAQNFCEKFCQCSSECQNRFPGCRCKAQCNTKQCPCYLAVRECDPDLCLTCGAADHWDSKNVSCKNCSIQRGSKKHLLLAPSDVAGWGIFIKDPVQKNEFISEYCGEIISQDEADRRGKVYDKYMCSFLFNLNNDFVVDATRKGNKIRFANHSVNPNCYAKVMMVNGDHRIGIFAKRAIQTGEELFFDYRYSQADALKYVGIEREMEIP
T1 sequence (O75530 whole entry partner): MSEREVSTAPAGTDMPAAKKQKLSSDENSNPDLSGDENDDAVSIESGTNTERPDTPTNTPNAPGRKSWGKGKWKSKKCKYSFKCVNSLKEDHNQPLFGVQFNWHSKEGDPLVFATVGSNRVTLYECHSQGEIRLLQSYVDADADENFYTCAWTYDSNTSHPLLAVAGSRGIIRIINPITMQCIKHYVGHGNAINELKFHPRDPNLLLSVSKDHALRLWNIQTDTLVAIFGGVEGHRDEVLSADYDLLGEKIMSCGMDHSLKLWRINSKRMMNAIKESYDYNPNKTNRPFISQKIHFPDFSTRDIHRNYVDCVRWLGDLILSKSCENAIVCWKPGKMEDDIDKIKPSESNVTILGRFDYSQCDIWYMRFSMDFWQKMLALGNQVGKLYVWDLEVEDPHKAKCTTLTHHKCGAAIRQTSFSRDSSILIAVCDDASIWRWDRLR
T1 sequence (Q15022 whole entry partner): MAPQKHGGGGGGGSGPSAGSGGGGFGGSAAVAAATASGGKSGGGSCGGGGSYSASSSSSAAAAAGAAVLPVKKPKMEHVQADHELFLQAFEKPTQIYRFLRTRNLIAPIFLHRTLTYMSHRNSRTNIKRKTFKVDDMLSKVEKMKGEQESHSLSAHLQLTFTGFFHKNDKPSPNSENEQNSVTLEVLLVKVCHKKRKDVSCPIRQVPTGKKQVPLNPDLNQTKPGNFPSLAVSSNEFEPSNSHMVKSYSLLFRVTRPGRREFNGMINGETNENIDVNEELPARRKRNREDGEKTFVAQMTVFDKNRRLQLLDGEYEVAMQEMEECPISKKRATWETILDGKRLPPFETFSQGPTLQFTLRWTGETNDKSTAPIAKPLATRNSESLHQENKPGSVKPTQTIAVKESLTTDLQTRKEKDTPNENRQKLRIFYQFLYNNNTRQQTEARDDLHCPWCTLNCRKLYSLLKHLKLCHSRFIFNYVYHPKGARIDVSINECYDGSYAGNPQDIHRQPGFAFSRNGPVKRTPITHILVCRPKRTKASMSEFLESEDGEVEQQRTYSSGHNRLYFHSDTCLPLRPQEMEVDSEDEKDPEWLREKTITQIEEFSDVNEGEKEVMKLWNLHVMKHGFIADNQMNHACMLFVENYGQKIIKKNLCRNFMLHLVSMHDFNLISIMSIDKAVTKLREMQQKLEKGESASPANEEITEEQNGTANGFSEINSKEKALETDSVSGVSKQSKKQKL
Protocol: Western Blotting was performed as described previously. Briefly, Cells were scraped, collected, and lysed in RIPA buffer. To release histones from chromatin, cell lysates were further sonicated for 15 sec using a XL2000 Microson Ultrasonic Processor (Misonix). Equal amounts of protein (30 μg) were separated on SDS-polyacrylamide gels and transferred to PVDF membranes. The blots were probed with antibodies against EED (07-368), SUZ12 (07-379), trimethylated H3-K27 (07-449), Acetyl-Histone H3 (06-599), which were purchased from Upstate Biotechnology. IFNGR1 (GIR-94) and anti-IFI16 (1G7) were purchased from Santa Cruz. EZH2 phospho S21 (00388) was purchased from Bethyl Laboratories. EZH2 (AC22), P110α PI3K, p-AKT (T308), p-AKT (S473), pSTAT1Y701, total STAT1, Histone H3 (3H1), Beclin-1 and cleaved PARP were purchased from Cell Signaling. Myc and Actin were purchased from Roche Applied Science and Sigma-Aldrich, respectively.

LNCaP cells = test: Cell proliferation assay (CellTiter-Glo) in LNCaP cells; assay type: cell-based, human; settings: siRNA knockdown combined with IFN-γ treatment
Protocol: (§1) The optimal cell seeding was determined empirically for all cell lines by examining the growth of a wide range of seeding densities in a 96-well format to identify conditions that permitted proliferation for 6 days. Cells were then plated at the optimal seeding density 24 h before siRNA or drug treatment in triplicate. Plates were incubated for 6 days at 37° C. in 5% CO2. Cells were then lysed with CellTiter-Glo (CTG) (Promega) and chemiluminescent signal was detected with a microplate reader (TECAN). In addition, an untreated plate of cells was harvested at the time of drug or siRNA addition (T0) to quantify the starting number of cells. CTG values obtained after the 6 day treatment were expressed as percentages of the T0 value and plotted against time of treatment. Cells received 1-5 μM of DZNep, 25 ng/mL of IFN-γ and 0.1-2.5 μM of GSK343 unless stated otherwise for 72-96 h.

DU145 cells [3] = test: Cell proliferation assay (CellTiter-Glo) in DU145 cells; assay type: cell-based, human; settings: siRNA knockdown combined with IFN-γ treatment
Protocol: as §1

DU145 xenograft tumor = DU145 xenograft tumor growth in male athymic nude mice; assay type: in vivo; settings: IFN-γ 1×10^7 IU/kg i.p. daily, DZNep 1 mg/kg s.c. every alternating day, 38 days
Protocol: For in vivo evaluation of DZNep and IFN-γ treatment, the experiments were conducted in compliance with animal protocol approved by the ASTAR-Biopolis Institutional Animal Care and Use Committee (IACUC) of Singapore. DU145 cells were subcutaneously injected into 6-8 week male nude mice at 5×10^6 cells, followed by treatment with vehicle, IFN-γ (1×10^7 IU/kg) alone, DZNep (1 mg/kg) alone or combined DZNep (1 mg/kg) with IFN-γ (1×10^7IU/kg). IFN-γ was administered by intraperitoneal injection daily and DZNep by subcutaneous injection on every alternating day over a duration of 38 days after average tumor size reached around 150 mm^3. Tumors were measured by vernier calliper at least twice per week and tumors volume was calculated with formula: V=W*W*L/2. Each xenograft treatment arm comprised of 5-8 mice. Differences among groups and treatments were determined by ANOVA followed by t tests. (***p<0.001, n.s=not significant) Error bars represent means±s.e.m

**Q.** Which “H3K27me3 enrichment at the IFNGR1 gene promoter” value (IFNGR1 promoter) does the source give for `CC[C@H](C)n1cc(C)c2c(C(=O)NCc3c(C)cc(C)[nH]c3=O)cc(-c3ccc(N4CCNCC4)nc3)cc21` [GSK126, N-[(4,6-dimethyl-2-oxo-1,2-dihydro-3-pyridinyl)methyl]-3-methyl-1-((1S)-1-methylpropyl)-6-[6-(1-piperazinyl)-3-pyridinyl]-1H-indole-4-carboxamide] here?
**A.** The value was “more efficiently depleted H3K27me3”.

**Q.** What about the IFNGR1 expression ([1]; GSK126 up to 10 μM for 10 days) of the same molecule?
**A.** The IFNGR1 expression was “modest induction of IFNGR1”.

**Q.** And the “ability to induce the loss of cell viability” value (solid tumor cells)?
**A.** The value was “unable to do so”.

**Q.** And the “apoptotic effect (sub-G1)” value (DU145 cells [2])?
**A.** The value was “failed to see an apoptotic effect”.

**Q.** What does the source list for `CCCc1cc(C)[nH]c(=O)c1CNC(=O)c1cc(-c2ccnc(N3CCN(C)CC3)c2)cc2c1cnn2C(C)C` [GSK343, N-[(6-methyl-2-oxo-4-propyl-1,2-dihydropyridin-3-yl)methyl]-6-[2-(4-methylpiperazin-1-yl)pyridin-4-yl]-1-(propan-2-yl)-1H-indazole-4-carboxamide]?
**A.** depletion of H3K27me3 (EZH2/PRC2 and H3K27me3; GSK343 at as low as 0.1 μM, 3 days): efficient depletion of H3K27me3; IFNGR1 expression ([1]; GSK343 up to 2.5 μM for 3 days): did not show an induction of IFNGR1; apoptotic effect (sub-G1) (DU145 cells [2]): failed to see an apoptotic effect

**Q.** With `O=C(CCCCCCC(=O)Nc1ccccc1)NO` [SAHA] as the molecule, how does the “apoptosis (sub-G1) with other epigenetic compounds” value (DU145 cells [2]) read?
**A.** Its value is “did not give rise to such a response”.

**Q.** With `CC(/C=C/C(=O)NO)=C\[C@@H](C)C(=O)c1ccc(N(C)C)cc1` [TSA] as the molecule, how does the “apoptosis (sub-G1) with other epigenetic compounds” value (DU145 cells [2]) read?
**A.** Its value is “did not give rise to such a response”.

**Q.** Which results are given for “MYC knockdown: MYC siRNA: 5′-UCCUGAGACAGAUCAGCAACAACCG-3′ (SEQ ID NO:2) (other strand not given here)”?
**A.** EZH2 expression after knockdown (EZH2/PRC2 and H3K27me3): decreased EZH2 expression; cell growth after knockdown (LNCaP cells): no such an effect was seen; cell growth after knockdown (DU145 cells [3]): remarkable synergy in cell growth regression; apoptosis (sub-G1) after knockdown (DU145 cells [2]; siRNA knockdown in combination with IFN-γ): apoptosis induction

B1: IFN-γ: human recombinant IFN-γ purchased from Sigma; enhancer of interferon-gamma receptor activity (protein)
chain: QDPYVKEAENLKKYFNAGHSDVADNGTLFLGILKNWKEESDRKIMQSQIVSFYFKLFKNFKDDQSIQKSVETIKEDMNVKFFNSNKKKRDDFEKLTNYSVTDLNVQRKAIHELIQVMAELSPAAKTGKRKRSQMLFRGRRASQ
**Q.** For B1, which xenograft tumor growth (DU145 xenograft tumor) is on record?
**A.** Its xenograft tumor growth is “slowed down the tumor growth”.
